Source: ChEMBL document CHEMBL4706474, “Tetrahydro-2-naphthyl and 2-Indanyl Triazolopyrimidines Targeting Plasmodium falciparum Dihydroorotate Dehydrogenase Display Potent and Selective Antimalarial Activity” (J Med Chem, 2016)
Values after ≈ are worked out from the molar mass of the structure shown.

Tests used:
[1] = Solubility of compound in FeSSIF at pH 5 measured after 5 to 6 hrs by HPLC-UV based analysis; assay type: physicochemical; conditions: simulated gi fluid, time 5-6 hrs
[2] = Inhibition of N-terminal His6-tagged Plasmodium vivax DHODH expressed in Escherichia coli BL21 using L-DHO as substrate and CoQ as co-substrate by DCIP dye based spectrophotometric assay
[3] = Intrinsic clearance in rat liver microsomes assessed per mg protein at 1 uM by LC-MS analysis; assay type: ADME, Microsome
[4] = Protein binding in Sprague-Dawley rat plasma at […], iv administered as infusion for 10 mins by LC-MS analysis; assay type: ADME, organism-based; conditions: read-out: PPB (converted)
[5] = Volume of distribution at steady state in Sprague-Dawley rat at […], iv administered as infusion for 10 mins by LC-MS analysis; assay type: ADME, organism-based; conditions: in vivo, dose 1.1 mg/kg
[6] = Kinetic solubility of compound in phosphate buffer at pH 6.5 measured after 30 mins by HPLC-UV based analysis; assay type: physicochemical; conditions: phosphate buffer, pH 6.5, read-out: Kinetic_solubility
[7] = AUC (0 to infinity) in Sprague-Dawley rat at 18.3 mg/kg, po measured over 24 hrs by LC-MS analysis; assay type: ADME, organism-based; set-up: route oral, dose 18.3 mg/kg, time >24; conditions: in vivo
[8] = Unbound AUC (0 to infinity) in Sprague-Dawley rat at 18.3 mg/kg, po measured over 24 hrs by LC-MS analysis; assay type: ADME, organism-based; conditions: in vivo
[9] = Solubility of compound in 0.1 N HCl measured after 5 to 6 hrs by HPLC-UV based analysis; assay type: physicochemical; conditions: buffer; time 5-6 hrs
[10] = Unbound Cmax in Sprague-Dawley rat at 18.3 mg/kg, po measured over 24 hrs by LC-MS analysis; assay type: ADME, organism-based; conditions: in vivo
[11] = Tmax in Swiss mouse at 20 mg/kg, po administered as single dose via gavage measured over 24 hrs by LC-MS analysis; assay type: ADME, organism-based; conditions: in vivo
[12] = Solubility of compound in FaSSIF at pH 6.5 measured after 5 to 6 hrs by HPLC-UV based analysis
[13] = Protein binding in rat plasma assessed as bound fraction by LC-MS analysis based ultracentrifugation assay; assay type: ADME, cell-free; conditions: read-out: PPB (converted)
[14] = Unbound AUC (0 to infinity) in Sprague-Dawley rat at […], iv by LC-MS analysis; assay type: ADME, organism-based; conditions: in vivo
[15] = Inhibition of yeast DHODH expressed in Plasmodium falciparum; set-up: species or system Saccharomyces cerevisiae
[16] = Apparent half-life in Swiss mouse at 20 mg/kg, po administered as single dose via gavage measured over 24 hrs by LC-MS analysis; assay type: ADME, organism-based; conditions: in vivo
[17] = Cmax in Swiss mouse at 20 mg/kg, po administered as single dose via gavage measured over 24 hrs by LC-MS analysis; assay type: ADME, organism-based; set-up: route oral, dose 20 mg/kg, time >24; conditions: in vivo
[18] = Inhibition of N-terminal His6-tagged Plasmodium falciparum DHODH expressed in Escherichia coli BL21 using L-DHO as substrate and CoQ as co-substrate by DCIP dye based spectrophotometric assay
Plasmodium falciparum [19] = assay: Antiplasmodial activity against Plasmodium falciparum 3D7 infected in RBC assessed as reduction in parasitemia incubated for 72 hrs by SYBR green dye-based assay; assay type: functional, organism-based
[20] = Lipophilicity, logD of the compound at pH 7.4; assay type: physicochemical; conditions: buffer
[21] = Unbound volume of distribution at steady state in Sprague-Dawley rat at […], iv administered as infusion for 10 mins by LC-MS analysis; assay type: ADME, organism-based; conditions: in vivo, dose 1.1 mg/kg
[22] = Cmax in Sprague-Dawley rat at 18.3 mg/kg, po measured over 24 hrs by LC-MS analysis; assay type: ADME, organism-based; set-up: route oral, dose 18.3 mg/kg, time >24; conditions: in vivo
[23] = Intrinsic clearance in mouse liver microsomes at 1 uM by LC-MS analysis; assay type: ADME, Microsome
[24] = Inhibition of N-terminal His6-tagged dog DHODH expressed in Escherichia coli BL21 using L-DHO as substrate and CoQ as co-substrate by DCIP dye based spectrophotometric assay; set-up: species or system Canis lupus familiaris
[25] = Elimination half-life in Swiss mouse at 20 mg/kg, po administered as single dose via gavage measured over 24 hrs by LC-MS analysis; assay type: ADME, organism-based; conditions: in vivo, read-out: beta t1/2 (converted)
in vivo = conditions: Sprague-Dawley, rat, po, 18.3 mg/kg
[26] = Protein binding in human plasma assessed as bound fraction by LC-MS analysis based ultracentrifugation assay; assay type: ADME, cell-free; conditions: read-out: PPB (converted)
[27] = AUC (0 to infinity) in Sprague-Dawley rat at […], iv administered as infusion for 10 mins by LC-MS analysis; assay type: ADME, organism-based; set-up: route intravenous, dose 1.1 mg/kg, time 10 min; conditions: in vivo
[28] = Protein binding in Swiss mouse plasma at 20 mg/kg, po administered as single dose via gavage measured over 24 hrs by LC-MS analysis; assay type: ADME, organism-based; conditions: read-out: PPB (converted)
[29] = Oral bioavailability in Sprague-Dawley rat at 18.3 mg/kg measured over 24 hrs by LC-MS analysis; assay type: ADME, organism-based; conditions: in vivo
[30] = Apparent half-life in Sprague-Dawley rat at […], iv administered as infusion for 10 mins by LC-MS analysis; assay type: ADME, organism-based; conditions: in vivo, dose 1.1 mg/kg, read-out: t1/2(app) (converted)
[31] = Unbound Cmax in Swiss mouse at 20 mg/kg, po administered as single dose via gavage measured over 24 hrs by LC-MS analysis; assay type: ADME, organism-based; conditions: in vivo
[32] = AUC (0 to infinity) in Swiss mouse at 20 mg/kg, po administered as single dose via gavage measured over 24 hrs by LC-MS analysis; assay type: ADME, organism-based; set-up: route oral, dose 20 mg/kg, time >24; conditions: in vivo
[33] = Unbound clearance in Sprague-Dawley rat at […], iv administered as infusion for 10 mins by LC-MS analysis; assay type: ADME, organism-based; conditions: in vivo, dose 1.1 mg/kg
[34] = Unbound AUC (0 to infinity) in Swiss mouse at 20 mg/kg, po administered as single dose via gavage measured over 24 hrs by LC-MS analysis; assay type: ADME, organism-based; conditions: in vivo
Plasmodium falciparum [35] = assay: Antiplasmodial activity against Plasmodium falciparum 3D7 infected in po dosed NSG mouse assessed as reduction in parasitemia administered twice daily for 4 consecutive days starting from day 3 post-infection and measured 24 hrs post last dose by flow cytometric analysis; assay type: functional; conditions: 3D7, po, 96 h, time 4 day
[36] = Unbound AUC (0 to infinity) in Sprague-Dawley rat at 18.8 mg/kg, po by LC-MS analysis; assay type: ADME, organism-based; conditions: in vivo
[37] = Protein binding in Swiss mouse plasma at 10 mg/kg, po administered as single dose via gavage measured over 24 hrs by LC-MS analysis; assay type: ADME, organism-based; conditions: read-out: PPB (converted)
Plasmodium falciparum [38] = assay: Antiplasmodial activity against Plasmodium falciparum 3D7 infected in po dosed NSG mouse assessed as blood AUC level require to show 90% reduction in parasitemia administered once daily for 4 consecutive days starting from day 3 post-infection and measured 24 hrs post last dose by flow cytometric analysis; assay type: functional, organism-based; conditions: time 4.0 day
[39] = Protein binding in mouse plasma assessed as bound fraction by LC-MS analysis based ultracentrifugation assay; assay type: ADME, cell-free; conditions: read-out: PPB (converted)
[40] = AUC (0 to infinity) in Sprague-Dawley rat at […], iv by LC-MS analysis; assay type: ADME, organism-based; set-up: time infinity, route intravenous, dose 2.6 mg/kg; conditions: in vivo
[41] = Unbound volume of distribution at steady state in Sprague-Dawley rat at […], iv by LC-MS analysis; assay type: ADME, organism-based; conditions: in vivo, dose 2.6 mg/kg
[42] = Unbound Cmax in Swiss mouse at 10 mg/kg, po by LC-MS analysis; assay type: ADME, organism-based; conditions: in vivo
[43] = Unbound Cmax in Sprague-Dawley rat at 18.8 mg/kg, po by LC-MS analysis; assay type: ADME, organism-based; conditions: in vivo
[44] = Unbound Clearance in Sprague-Dawley rat at […], iv by LC-MS analysis; assay type: ADME, organism-based; conditions: in vivo, dose 2.6 mg/kg
[45] = Intrinsic clearance in human pooled liver microsomes assessed per mg protein at 1 uM by LC-MS analysis; assay type: ADME, Microsome; conditions: pooled human liver microsomes
[46] = Unbound AUC (0 to infinity) in Swiss mouse at 10 mg/kg, po by LC-MS analysis; assay type: ADME, organism-based; conditions: in vivo

For `Cc1cc(NC2CCc3ccc(Br)cc3C2)n2nc(C(C)(F)F)nc2n1` (stereo in doubt), the solubility [1] was 39 µg/mL (≈ 92.4 µM), the IC50 [2] was 12 nM and the “Intrinsic clearance in rat liver microsomes (uL/min/mg protein)” value ([3]; microsomes, 1 µM) was 39 µL/min. It also gave a fraction unbound at 10 min ([4]; dose 1.1 mg/kg) of 0.028, a Vdss [5] of 8.7 L/kg and a solubility kinetic at 0.5 h [6] of 1.6 µg/mL (≈ 3.79 µM). It also gave an AUC(0-inf) [7] of 28.1 µM·h, a fAUC [8] of 0.79 µM·h and a solubility [9] of 52 µg/mL (≈ 123 µM). The fCmax [10] was 0.07 µM, the Tmax [11] was 1 h and the solubility [12] was 8.3 µg/mL (≈ 19.7 µM). It also gave a fraction unbound [13] of 0.028, a fAUC ([14]; dose 1.1 mg/kg) of 0.05 µM·h and an EC50 [15] of 7400 nM. For the same molecule, the “t1/2(app)” value [16] was 2.1 h, the Cmax [17] was 4.5 µM and the IC50 [18] was 4.6 nM. It also gave an EC50 (Plasmodium falciparum [19]; rbc) of 0.39 nM, a logD [20] of 4 and a fVdss [21] of 311 L/kg. For the same molecule, the Cmax [22] was 2.7 µM, the intrinsic clearance [23] was 32 µL/min and the IC50 [24] was > 100000 nM. For the same molecule, the half-life [25] was 2 h, the Tmax at 24 h (in vivo) was 3.3 h and the fraction unbound [26] was 0.037. It also gave an AUC(0-inf) at 10 min [27] of 2 µM·h, a fraction unbound at 24 h [28] of 0.028 and a bioavailability [29] of 86%. The half-life at 10 min [30] was 6.1 h, the fCmax [31] was 0.13 µM and the AUC [32] was 16.7 µM·h. The CL free [33] was 800 mL/min/kg and the fAUC [34] was 0.47 µM·h.
In the case of `Cc1cc(Nc2ccc(S(F)(F)(F)(F)F)cc2)n2nc(C(C)(F)F)nc2n1` [DSM-265], the ED90 (Plasmodium falciparum [35]) is reported as 3 mg/kg, the microsomal CLint at 1 µM ([3]; rat liver microsomes, read-out: CLH) is reported as 1.8 µL/min/mg and the fraction unbound at 10 min ([4]; dose 2.6 mg/kg) is reported as 0.023. For the same molecule, the solubility [9] was 6.8 µg/mL (≈ 16.4 µM), the fraction unbound [13] was 0.023 and the fAUC ([14]; dose 2.6 mg/kg) was 0.4 µM·h. It also gave a fAUC [36] of 2.8 µM·h, a fraction unbound at 24 h [37] of 0.003 and an AUCED90 (Plasmodium falciparum [38]) of 30.8 µM.hr/day. For the same molecule, the EC50 (Plasmodium falciparum [19]; Plasmodium falciparum, 3D7, Erythrocyte, 72 h) was 4.3 nM, the intrinsic clearance [23] was 2.8 µL/min and the fraction unbound [39] was 0.003. It also gave an AUC(0-inf) [40] of 17.4 µM·h, a fVdss [41] of 257 L/kg and a fCmax [42] of 0.01 µM. It also gave a fCmax [43] of 0.09 µM, a CL free [44] of 263 mL/min/kg and a microsomal CLint at 1 µM [45] of 4.3 µL/min/mg. It also gave a fAUC [46] of 0.07 µM·h.
